Source: article PMC5740381 (Antimicrobial Agents and Chemotherapy, 2017)
Several values for one entry are separate records, joined by “and”; a condition that tells them apart may be missing. Equal values may be shown once. Read-outs that look alike come from different tables or passages of the source.

Legend:
[1] = system: HCV replicons with genotype 3a patient proteases; assay: Transient replicon assay with proteases from HCV-infected patients; format: cell-based; settings: Hepatitis C virus, subtype 3a, no polymorphism, 2 samples
Description: (§1) […]. Each of the NS3 gene sequences from genotypes 1, 2, and 4, with the exception of two genotype 2b sequences, was derived from serum or plasma from an HCV-infected patient by bulk PCR amplification, producing a population of sequences representing the viral quasispecies. Two genotype 2b sequences were synthesized based on the consensus sequences of the respective samples. One genotype 3a sequence was synthesized based on a consensus sequence from the sequences available in the Los Alamos HCV sequence database, and another genotype 3a sequence was a clonal sequence derived from a patient sample. The genotype 5a sequence (strain SA13) was synthesized based on the published sequence of the HCV isolate ([48]).
(§2) Transient replicons containing NS3 from clinical samples from HCV genotype 1a- and 1b-infected patients were described previously ([28]). For the transient replicons containing NS3/4A from samples from genotype 3a-infected patients, the first 251 amino acids of NS3 and the region encoding NS4A amino acids 21 to 32 (numbered relative to the NS4A coding region) from these HCV samples were cloned to replace the corresponding residues from the backbone of a genotype 1b Con1 shuttle vector. A genotype 1b Con1 transient replicon shuttle vector was also used to clone the region encoding the first 251 amino acids of NS3 from samples from genotype 4a- or 4d-infected patients in place of the corresponding region from HCV genotype 1b Con1.
(§3) For the analysis of NS3 sequences from patients, we defined a polymorphism to be an amino acid difference in the sequence of a baseline sample relative to the sequence of the appropriate HCV subtype reference sequence: genotype 1a H77 (GenBank accession number NC_004102), genotype 1b Con1 (GenBank accession number AJ238799), genotype 2a JFH-1 (GenBank accession number AB047639), genotype 2b HC-J8 (GenBank accession number D10988), genotype 3a S52 (GenBank accession number GU814263), genotype 4a ED43 (GenBank accession number GU814265), genotype 4d QC382 (GenBank accession number FJ462437), and genotype 5a SA13 (GenBank accession number AF064490). Polymorphisms were assessed at the following NS3 amino acid positions that are associated with resistance to the HCV PI class: 36, 43, 54, 55, 56, 80, 122, 155, 156, and 168. All DNA sequencing was performed by the Sanger sequencing method.

[2] = system: HCV replicons with genotype 1a patient proteases; assay: as above; format: cell-based; settings: Hepatitis C virus
Description: as §1, §2, §3

[3] = system: HCV replicons with genotype 1b patient proteases; assay: as above; format: cell-based; settings: Hepatitis C virus, subtype 1b, no polymorphism, 9 samples
Description: as §1, §2, §3

[4] = system: HCV replicons with genotype 4d patient proteases; assay: as above; format: cell-based; settings: Hepatitis C virus, 96 h, subtype 4d, no polymorphism, 3 samples
Description: as §1, §2, §3

[5] = system: HCV replicons with genotype 2b patient proteases; assay: as above; format: cell-based; settings: Hepatitis C virus, read-out: EC50 Range
Description: Each of the NS3 gene sequences from genotypes 1, 2, and 4, with the exception of two genotype 2b sequences, was derived from serum or plasma from an HCV-infected patient by bulk PCR amplification, producing a population of sequences representing the viral quasispecies. Two genotype 2b sequences were synthesized based on the consensus sequences of the respective samples. One genotype 3a sequence was synthesized based on a consensus sequence from the sequences available in the Los Alamos HCV sequence database, and another genotype 3a sequence was a clonal sequence derived from a patient sample. The genotype 5a sequence (strain SA13) was synthesized based on the published sequence of the HCV isolate ([48]).
as §3, with “Polymorphisms were assessed at the following NS3 amino acid positions that are associated with resistance to the HCV PI class: 36, 43, 54, 55, 56, 80, 122, 155, 156, and 168. All DNA sequencing was performed by the Sanger sequencing method.” left out

MTT cytotoxicity assay = settings: human
Method: For MT4 cells, 10,000 cells/well were plated immediately before the addition of glecaprevir. The rest of the assay was performed as described previously ([33]).

[6] = system: HCV replicons with genotype 2a patient proteases; assay: Transient replicon assay with proteases from HCV-infected patients; format: cell-based; settings: Hepatitis C virus, subtype 2a, no polymorphism, 4 samples
Description: as §1
A genotype 2a JFH-1 replicon shuttle vector was used to generate transient replicons containing NS3 from clinical samples from genotype 2a- and genotype 2b-infected patients. The region encoding the first 227 amino acids of NS3 from samples from genotype 2a- and 2b-infected patients was used to replace the corresponding region in the genotype 2a JFH-1 replicon shuttle vector. The genotype 2a JFH-1 replicon shuttle vector was also used to generate a transient replicon containing a region encoding full-length NS3 through the first 39 amino acids of NS5B from genotype 5a (strain SA13). […]

[7] = system: HCV genotype 1 to 6 replicons containing NS3 substitutions; assay: Transient replicon assay with engineered substitutions, summary over genotypes; format: cell-based, Hepatitis C virus
Method: Mutagenesis was performed using a Change-IT multiple-mutation site-directed mutagenesis kit (USB, Cleveland, OH) or by cloning a synthesized DNA fragment encoding the amino acid substitution(s). The genotype 1a and 1b replicon shuttle vectors used for the introduction of the substitutions of interest in the NS3, NS5A, or NS5B gene for transient-transfection assays have been described previously ([28], [33]). The replicon shuttle vectors used for the introduction of substitutions in NS3 genes from other genotypes were similar to the stable replicon cell line constructs described above, except for the absence of the neo gene. After mutagenesis, the plasmids were linearized and RNA was transcribed and then used to transfect Huh-7 cells. Inhibition of HCV replication by the HCV inhibitors was measured by luciferase assay, as described above. Replication efficiency was calculated as a percentage of wild-type replication, as described previously ([28]).

CC(C)(C)[C@@H]1NC(=O)O[C@@H]2CCC[C@H]2OC/C=C/C(F)(F)c2nc3ccccc3nc2O[C@@H]2C[C@@H](C(=O)N[C@]3(C(=O)NS(=O)(=O)C4(C)CC4)C[C@H]3C(F)F)N(C2)C1=O [Glecaprevir, (3aR,7S,10S,12R,21E,24aR)-7-tert-butyl-N-[(1R,2R)-2-(difluoromethyl)-1-{[(1-methylcyclopropyl)sulfonyl]carbamoyl}cyclopropyl]-20,20-difluoro-5,8-dioxo-2,3,3a,5,6,7,8,11,12,20,23,24a-dodecahydro-1H,10H-9,12-methanocyclopenta[18,19][1,10,17,3,6]trioxadiazacyclononadecino[11,12-b]quinoxaline-10-carboxamide]
EC50 ([1]; read-out: EC50 Median): 2.3 nM | EC50 ([1]; read-out: EC50 Range): 0.71 to 3.8 nM | EC50 ([2]; all genotype 1a clinical samples, read-out: Median EC50): 0.08 nM | EC50 ([2]; subtype 1a, Q80K, 5 samples, read-out: EC50 Median): 0.09 nM | EC50 ([2]; subtype 1a, Q80K, 5 samples, read-out: EC50 Range): 0.07 to 0.1 nM | EC50 ([2]; subtype 1a, Q80N, 1 sample, read-out: EC50 Median): 0.09 nM | EC50 ([2]; subtype 1a, no NS3 polymorphism, 5 samples, read-out: EC50 Median): 0.06 nM | EC50 ([2]; subtype 1a, no NS3 polymorphism, 5 samples, read-out: EC50 Range): 0.05 to 0.12 nM | EC50 ([3]; read-out: EC50 Median): 0.29 nM | EC50 ([3]; read-out: EC50 Range): 0.2 to 0.68 nM | EC50 ([4]; read-out: EC50 Median): 0.17 nM | EC50 ([4]; read-out: EC50 Range): 0.13 to 0.25 nM | EC50 [5]: 1.4 to 3.2 nM | CC50 (MTT cytotoxicity assay): 72 µM and 60 µg/mL | EC50 ([6]; read-out: EC50 Median): 1.6 nM | EC50 ([6]; read-out: EC50 Range): 0.66 to 1.9 nM

Cc1cnc(C(=O)N[C@H]2CCCCC/C=C\[C@@H]3C[C@@]3(C(=O)NS(=O)(=O)C3CC3)NC(=O)[C@@H]3C[C@@H](Oc4nc5ccccc5c5ccccc45)CN3C2=O)cn1 [Paritaprevir]
Fold decrease in susceptibility ([7]; R155 substitutions in genotypes 1, 3 and 4): 5.2- to 59 fold | Fold reduction in antiviral activity, range ([7]; replicons with A156 substitutions in genotypes 1 to 4): 1.7- to 155 fold
